In brackets after ≈: the same amount, converted by molar mass. Residues, ends and D or L forms follow the SMILES beside them. *: point of attachment. Palmitoyl = CCCCCCCCCCCCCCCC(=O)*; Myristoyl = CCCCCCCCCCCCCC(=O)*
Columns and labels:
[1] = test system: C. parapsilosis CCM 8260; type: cell-based, Candida parapsilosis; conditions: RPMI-1640 with MOPS and 2% glucose, inoculum 5 × 10^3 CFU/mL, 24 h, 35 °C, absorbance 600 nm, triplicate
Method: (§1) The evaluation of the antimicrobial activity of the synthesized lipopeptides was performed against the following reference bacterial and fungal strains: Staphylococcus aureus PCM 1650, Staphylococcus aureus PCM 2054, Staphylococcus epidermidis PCM 521, Staphylococcus epidermidis PCM 2118, Escherichia coli PCM 2057, Candida albicans PCM 2566, Candida glabrata CCM 8270, Candida krusei CCM 8271, Candida parapsilosis CCM 8260.
(§2) For the initial cultivation of the bacteria and fungi, Luria-Bertani broth (LB, Biomaxima, Lublin, Poland) and Sabouraud Dextrose broth (SB, Biomaxima, Lublin, Poland) were used, respectively. Antimicrobial properties of the compounds were analyzed through the determination of MIC (minimal inhibitory concentrations) by my means of the serial micro-dilution technique according to the guidelines of Clinical & Laboratory Standard Institute (CLSI) established for aerobic bacteria and yeasts.
(§3) According to the procedures, Mueller–Hinton broth (MHB) was used as the working medium for the analysis of the bacterial susceptibility, while RPMI-1640 (with L-glutamine, without sodium bicarbonate) growth medium buffered with MOPS (morpholinepropanesulfonic acid) and supplemented with 2% glucose was used for the experiments with the fungi.
(§4) The experiments were carried out for 24 h at 37 and 35 °C for the bacteria and fungi, respectively. Then, the absorbance was measured at 600 nm for each well of the 96-well plate using a microplate reader (Sunrise TM, Tecan Trading AG, Männedorf, Switzerland). Based on the obtained results, the degree of inhibition of the growth of microorganisms (expressed in %) in the presence of the tested compounds range was determined with respect to the control probes. Inoculated wells without peptide were treated as a positive control (100% growth), and the wells containing working medium only were defined as a negative control (0% growth). All measurements were repeated in triplicate.

[2] = test system: E. coli PCM2057; type: cell-based, Escherichia coli; conditions: Mueller–Hinton broth, inoculum 5 × 10^5 CFU/mL, 24 h, 37 °C, absorbance 600 nm, triplicate
Method: as §1, §2, §3, §4

[3] = test system: S. epidermidis PCM521; type: cell-based, Staphylococcus epidermidis; conditions: Mueller–Hinton broth, inoculum 5 × 10^5 CFU/mL, 24 h, 37 °C, absorbance 600 nm, triplicate
Method: as §1, §2, §3, §4

[4] = test system: S. epidermidis PCM2118; type: cell-based, Staphylococcus epidermidis; conditions: Mueller–Hinton broth, inoculum 5 × 10^5 CFU/mL, 24 h, 37 °C, absorbance 600 nm, triplicate
Method: as §1, §2, §3, §4

[5] = test system: S. aureus PCM2054; type: cell-based, Staphylococcus aureus; conditions: Mueller–Hinton broth, inoculum 5 × 10^5 CFU/mL, 24 h, 37 °C, absorbance 600 nm, triplicate
Method: as §1, §2, §3, §4

[6] = test system: S. aureus PCM1650; type: cell-based, Staphylococcus aureus; conditions: Mueller–Hinton broth, inoculum 5 × 10^5 CFU/mL, 24 h, 37 °C, absorbance 600 nm, triplicate
Method: as §1, §2, §3, §4

[7] = test system: C. krusei CCM8271; type: cell-based, Candida krusei; conditions: RPMI-1640 with MOPS and 2% glucose, inoculum 5 × 10^3 CFU/mL, 24 h, 35 °C, absorbance 600 nm, triplicate
Method: as §1, §2, §3, §4

[8] = test system: C. albicans PCM2566; type: cell-based, Candida albicans; conditions: RPMI-1640 with MOPS and 2% glucose, inoculum 5 × 10^3 CFU/mL, 24 h, 35 °C, absorbance 600 nm, triplicate
Method: as §1, §2, §3, §4

[9] = test system: C. glabrata CCM8270; type: cell-based, Candida glabrata; conditions: RPMI-1640 with MOPS and 2% glucose, inoculum 5 × 10^3 CFU/mL, 24 h, 35 °C, absorbance 600 nm, triplicate
Method: as §1, §2, §3, §4

[10] = test system: fungi Candida spps; assay: MIC, antifungal activity; type: cell-based; conditions: text summary of Table 1, Candida strains
Method: as §1
as §2, with “yeasts. […]” for “yeasts.”
as §4, with “Inoculated wells without peptide were treated as a positive control (100% growth), and the wells containing working medium only were defined as a negative control (0% growth). All measurements were repeated in triplicate.” left out

Row | SMILES | MIC, C. parapsilosis CCM 8260 [1] [µg/mL] | MIC, E. coli PCM2057 [2] [µg/mL] | MIC, S. epidermidis PCM521 [3] [µg/mL] | MIC, S. epidermidis PCM2118 [4] [µg/mL] | MIC, S. aureus PCM2054 [5] [µg/mL] | MIC, S. aureus PCM1650 [6] [µg/mL] | MIC, C. krusei CCM8271 [7] [µg/mL] | MIC, C. albicans PCM2566 [8] [µg/mL] | MIC, C. glabrata CCM8270 [9] [µg/mL] | MIC, antifungal activity [10] [µg/mL]
1 | CCCCCCCCCCCCCC(=O)N[C@@H](CCCCN)C(=O)N[C@@H](CCCNC(=N)N)C(=O)N[C@@H](Cc1ccccc1)C(=O)N[C@@H](CCCCN)C(=O)N[C@@H](CCCCN)C(=O)N[C@@H](Cc1ccccc1)C(=O)N[C@@H](Cc1ccccc1)C(=O)N[C@@H](CCCCN)C(=O)N[C@@H](CCCCN)C(=O)N[C@@H](CC(C)C)C(=O)N[C@@H](CCCCN)C(N)=O [C14-ATRA-1] (Myristoyl-KRFKKFFKKLK-NH2) | 3.13 (≈ 1.83 µM) | >50 | 25 (≈ 14.6 µM) | 6.25 (≈ 3.66 µM) | 3.9 (≈ 2.28 µM) | 12.5 (≈ 7.32 µM) | 2.5 (≈ 1.46 µM) | 2.5 (≈ 1.46 µM) | 3.13 (≈ 1.83 µM) | –
2 | CCCCCCCCCCCCCCCC(=O)N[C@@H](CCCCN)C(=O)N[C@@H](CCCNC(=N)N)C(=O)N[C@@H](Cc1ccccc1)C(=O)N[C@@H](CCCCN)C(=O)N[C@@H](CCCCN)C(=O)N[C@@H](Cc1ccccc1)C(=O)N[C@@H](Cc1ccccc1)C(=O)N[C@@H](CCCCN)C(=O)N[C@@H](CCCCN)C(=O)N[C@@H](CC(C)C)C(=O)N[C@@H](CCCCN)C(N)=O [C16-ATRA-1] (Palmitoyl-KRFKKFFKKLK-NH2) | 3.13 (≈ 1.8 µM) | >50 | 25 (≈ 14.4 µM) | 12.5 (≈ 7.2 µM) | >50 | – | 2.5 (≈ 1.44 µM) | 2.5 (≈ 1.44 µM) | 3.13 (≈ 1.8 µM) | ≤ 3.13
3 | CC[C@H](C)[C@H](NC(=O)[C@H](CCCCN)NC(=O)CNC(=O)[C@H](CC(C)C)NC(=O)[C@@H](NC(=O)[C@H](CCCCN)NC(=O)[C@H](CCCCN)NC(=O)[C@H](Cc1c[nH]c2ccccc12)NC(=O)[C@H](CC(N)=O)NC(=O)[C@@H](N)C(C)C)C(C)C)C(=O)N[C@H](C(=O)N[C@@H](CCCCN)C(=O)N[C@H](C(=O)N[C@@H](C)C(=O)N[C@@H](CCCCN)C(N)=O)C(C)C)[C@@H](C)CC [LL-I, reference compound] (H-VNWKKVLGKIIKVAK-NH2) | 50 (≈ 29 µM) | 12.5 (≈ 7.25 µM) | 12.5 (≈ 7.25 µM) | 6.25 (≈ 3.63 µM) | >50 | 25 (≈ 14.5 µM) | 50 (≈ 29 µM) | >50 | >50 | –

Source: paper PMC9959048, “Lipidation of Naturally Occurring α-Helical Antimicrobial Peptides as a Promising Strategy for Drug Design” (International Journal of Molecular Sciences, 2023)
